Read-outs that look alike come from different tables or passages of the source.
Key:
HaCaT cells [1] = test: Mitosis by immunofluorescence (β-tubulin, DAPI); type: cell-based, human; conditions: 30 μM, 24 hours versus 12 hours, FIG. 9
Description: Next, the cell cycle is observed according to the immunofluorescence method. In order to look into from which step among G2/M phase the induction of apoptosis by TAPS is induced, mitosis is observed by using β-tubulin. HaCaT cells are cultured on a dish with a cover slip and treated with TAPS (30 μM). The cells are washed with PBS at each time interval, fixed with 5% paraformaldehyde for 15 minutes, and reacted with β-tubulin antibody (1:100) for 1 hour. They were washed with PBS and reacted with Cy3-conjugated anti-mouse IgG secondarily. For DNA staining, 0.3 μg/ml of DAPI (Sigma) is added to the cells, which are observed by using a fluorescent microscope.

HaCaT cells [2] = test: Cell cycle by flow cytometric analysis; type: cell-based, human; conditions: FIG. 8
Description: The effects of the compositions of the present invention on the cell cycle are reviewed. In the flow cytometric analysis, the cells are treated with trypsin according to each time interval, collected and washed with PBS. They are fixed by using 80% ethanol, and propidium iodide and RNase are added to them. Thereafter, the cell cycle is analyzed by using a flow cytometer.

apoptosis-related genes = test: Apoptosis array kit, gene expression; type: cell-based; conditions: 30 μM, 24 hours, FIG. 10
Description: Firstly, in order to look into the genes involved in apoptosis induced by the compositions of the present invention, TAPS is treated at the dose of 30 μM for 24 hours, from which mRNA is isolated. Then it is observed by using an apoptosis array kit.
The labeled cDNA is synthesized by using apoptosis-specific primers offered by Human Apoptosis Expression Assay (R&D System, Minneapolis, Minn.), which is used for a probe in incubation with 2 μg of the total RNA at 65° C. overnight. It is then washed with Washing Solution I (0.5×SSPE, 1% (w/v) SDA) three times at a room temperature and with Washing Solution II ([…]) for 1 hour at 65° C. The washed membranes are exposed to X-ray films at […], and developed.

p53 = test: Immunoblot analysis of p53; type: cell-based, human; conditions: 30 μM, FIG. 12
Description: In the confirmation of apoptosis-related proteins, the immunoblot analysis is performed in order to look into the effects of the compositions of the present invention on the expression of caspase-3, p53, and Chk1 proteins related to the induction of apoptosis. HaCaT cells are cultured on a 100-mm dish and collected at the indicative time. The proteins are extracted by adding 500 μl of RIPA lysis buffer (1% Nonidet P-40, 1% sodium deoxycholate, 0.1% SDS, […], 0.01 M sodium phosphate, pH 7.2, 2 mM EDTA, 50 mM sodium fluoride and 0.2 mM sodium vanadate), and the concentration is measured by using the Bradford method. 1 Extracted proteins is electrophoresed on 12% polyacrylamide gel, and they are transferred to the nitrocellulose membrane. The membrane blocked with 5% non-fat milk is reacted with the primary antibodies (caspase-3, p53, and Chk1), washed, and reacted with the secondary HRP-conjugated antibody. The intensity of proteins is analyzed by using the ECL kit.

[3] = MTT assay, cytotoxicity in HUVEC; type: cell-based, human; conditions: human
Procedure, shortened: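 Primary HUVEC cultured from human umbilical vein; cells in serum-free medium were exposed to phytosphingosine derivatives at final 1–100 μM for 24 h. Viability by MTT (2 mg/ml, 4 h), formazan dissolved in DMSO and read at O.D. 540 nm; C2-ceramide run for comparison.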

[4] = MTT assay, combined treatment with UVB irradiation; type: cell-based, human; conditions: human, HaCaT cells, HaCaT, read-out: Cell viability
Procedure, shortened: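 HaCaT cells in PBS irradiated with 200 J/m^2 UVB, then returned to DMEM and treated with test compounds for 24 h. Viability by MTT (2 mg/ml, 4 h), formazan dissolved in DMSO and read at 540 nm.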

For tetraacetyl phytosphingosine [TAPS], the “cells with chromosomes condensed” value (HaCaT cells [1]) was “more cells with chromosomes condensed are observed 24 hours after treating with TAPS than 12 hours after”, the G2/M phase (HaCaT cells [2]; thereafter up to 24 hours) was “reduced continuously” and the “sub G1 phase (apoptotic cells)” value (HaCaT cells [2]; thereafter up to 24 hours) was “increased relatively”. For the same compound, the G2/M phase (HaCaT cells [2]; up to 12 hours after treating) was “increased relatively”, the S phase (HaCaT cells [2]; up to 12 hours after treating) was “reduced” and the “expression of Bcl-10” value (apoptosis-related genes) was “increased”. The “expression of COX-2 gene” value (apoptosis-related genes) was “increased”, the “expression of IL-1β” value (apoptosis-related genes) was “increased” and the “expression of Mcl-1” value (apoptosis-related genes) was “increased”. The “expression of PIN gene” value (apoptosis-related genes) was “increased”, the “expression of p21” value (apoptosis-related genes) was “increased” and the “expression of p53 gene” value (apoptosis-related genes) was “decreased”. For the same compound, the expression of survivin (apoptosis-related genes) was “reduced”, the p53 protein (p53; at 8-hour) was “not changed greatly” and the p53 protein (p53; at 24 hour) was “rapid reduction”.

CCCCCCCCCCCCCC[C@@H](O)[C@@H](O)[C@H](CO)NC(C)=O [NAPS, N-acetyl phytosphingosine] gave a viability at 24 h, 3.5 µM [3] of 66 ± 7.5%, a viability at 24 h, 7 µM [3] of 51 ± 10.5% and a viability at 24 h, 15 µM [3] of 19 ± 3.4%. The viability at 24 h, 30 µM [3] was 14 ± 0.6%, the viability at 24 h, 1 µM ([4]; 1 μM + UVB 200 J/m^2, 24 hours) was 27 ± 5.8% and the viability at 24 h, 1 µM ([4]; 1 μM, no UVB, 24 hours) was 130 ± 10%. For the same compound, the viability at 24 h, 3 µM ([4]; 3 μM + UVB 200 J/m^2, 24 hours) was 17 ± 1.6%, the viability at 24 h, 3 µM ([4]; 3 μM, no UVB, 24 hours) was 117 ± 9.7% and the viability at 24 h, 5 µM ([4]; 5 μM + UVB 200 J/m^2, 24 hours) was 11 ± 1.3%. It also gave a viability at 24 h, 5 µM ([4]; 5 μM, no UVB, 24 hours) of 110 ± 14%, a viability at 24 h, 10 µM ([4]; 10 μM + UVB 200 J/m^2, 24 hours) of 1 ± 0.1% and a viability at 24 h, 10 µM ([4]; 10 μM, no UVB, 24 hours) of 67 ± 12%.

From patent US20060166934A1, “Composition comprising phytosphingosine derivatives for apoptosis induction” (Tae-Yoon Kim, priority 2002, published 2006)
